One data set concerns the target T1, CYP3A4 (Homo sapiens, UniProt P08684).
T1 construct: purchased Promega (Madison, WI, USA)
In words: CYP3A4 P450-Glo assay. The conditions noted are these: 10 μM. Type of data set: in vitro ADME. The procedure: The inhibition effect of enantiomers on CYP2C9 was also determined, but only at the highest concentrations (Figure 10C). In summary, the potential for DDIs of the tested enantiomers in comparison to the reference CYP inhibitors was estimated as very low.
Figure 10 Influence of (R)-31, (R)-32, and (R)-33 on: CYP3A4 activity (A) and the reference inhibitor ketoconazole (KE), CYP2D6 activity (B) and the reference inhibitor quinidine (QD), CYP2C9 activity (C) and the reference inhibitor sulfaphenazole (SE). The results are presented as means + SD. Statistical significance was evaluated by one-way ANOVA, followed by Bonferroni’s multiple comparison post hoc test (Graph Pad Prism 8.0.1 software) *p < 0.05, **p < 0.01, ***p < 0.001, ****p < 0.0001.
All assays and protocols used for the evaluation of compounds ADME-Tox parameters were described previously.[35]−[38],[95]−[98] […] The vitality of the cells was assessed using the CellTiter 96 AQueous Non-Radioactive Cell Proliferation Assay (Promega, Madison, WI, USA), following a 48 h incubation period with either the reference medication, doxorubicin (DOX), or serial dilutions of the investigated compounds. Using an EnSpire PerkinElmer microplate reader (Waltham, MA, USA), the luminescent signal and absorbances (measured at 490 nm) in DDIs and safety assays were determined. […]

In data set [1] the test system is REDs in the medial entorhinal cortex of brain slices from kainate-treated rats. In words: spontaneous recurrent epileptiform discharges (REDs) in brain slices of KA-rats. Set-up: species or system rat. The conditions noted are these: 40, 80 and 120 μM, 20 min bath exposure. The procedure: The effects of (R)-32 on spontaneous recurrent epileptiform discharges (REDs) recorded in the medial entorhinal cortex of a brain slices obtained from rats that had previously experienced kainate-induced status epilepticus (KA-rats) were evaluated at 40, 80, and 120 μM. […] Finally, the average duration, frequency, and amplitude of REDs after a 20 min exposure, and normalized to baseline measurements, is illustrated in Figure 4C for 40, 80, and 120 μM (R)-32. […] Accordingly, no EC50 quantifications were performed.
Figure 4 (R)-32 fails to affect REDs (recurrent epileptiform discharges) at any concentrations tested. (A) Representative traces of REDs recorded before (baseline), in the presence of 80 μM (R)-32, and 20 min after washout. […]
Evaluation of spontaneous recurrent electrographic discharges (REDs) from the medial entorhinal cortex in acute brain slices obtained from Sprague–Dawley rats that had previously experienced kainate-induced status epilepticus (KA-rats) were performed as previously described (West et al., 2018).[90] […] Extracellular field excitatory postsynaptic potentials (fEPSPs) were then recorded from layer II of the medial entorhinal cortex from 8 brain slices simultaneously. Spontaneous REDs were recorded for a 20 min baseline period. […] Data were acquired using pClamp 10.4.2 and analyzed using the included clampfit 10.4 software. […]

T1 sequence (P08684 whole entry): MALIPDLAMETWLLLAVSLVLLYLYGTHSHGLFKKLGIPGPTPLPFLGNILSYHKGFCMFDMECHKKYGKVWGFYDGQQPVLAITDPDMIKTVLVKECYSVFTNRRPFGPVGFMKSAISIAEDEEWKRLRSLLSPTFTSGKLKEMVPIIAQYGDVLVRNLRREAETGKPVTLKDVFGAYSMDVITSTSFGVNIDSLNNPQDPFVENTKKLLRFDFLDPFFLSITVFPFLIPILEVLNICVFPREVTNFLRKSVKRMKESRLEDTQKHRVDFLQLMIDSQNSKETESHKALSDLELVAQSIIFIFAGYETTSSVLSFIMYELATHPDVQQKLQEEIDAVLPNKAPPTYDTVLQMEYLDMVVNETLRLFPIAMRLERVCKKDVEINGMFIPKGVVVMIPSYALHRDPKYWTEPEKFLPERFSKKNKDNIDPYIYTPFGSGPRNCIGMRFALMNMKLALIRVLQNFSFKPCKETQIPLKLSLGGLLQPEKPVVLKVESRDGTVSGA

For `CC(=O)N[C@@H](C(=O)N1CCN(c2cccc(C(F)(F)F)c2)CC1)c1ccccc1` [(R)-31, (R)-N-(2-Oxo-1-phenyl-2-(4-(3-(trifluoromethyl)phenyl)piperazin-1-yl)ethyl)acetamide], the “effect on CYP3A4 activity” value on CYP3A4 was “significantly inhibited”.

In the case of `CC(=O)N[C@@H](C(=O)N1CCN(c2cccc(OC(F)(F)F)c2)CC1)c1ccccc1` [(R)-32, (R)-N-(2-Oxo-1-phenyl-2-(4-(3-(trifluoromethoxy)phenyl)piperazin-1-yl)ethyl)acetamide], the “effect on RED parameters (duration, frequency, amplitude)” value in data set [1] is listed as “failed to significantly affect”.

The values above are taken from publication PMC11378297, “Discovery and Profiling of New Multimodal Phenylglycinamide Derivatives as Potent Antiseizure and Antinociceptive Drug Candidates” (ACS Chemical Neuroscience, 2024).
